Experimental data from US20260083865A1, “PROSTATE SPECIFIC MEMBRANE ANTIGEN (PSMA) LIGANDS AND USE THEREOF” (priority 2022, published 2026).
Read-outs that look alike come from different tables or passages of the source. Numbered stars: 1 amine (or outer) side, 2 acyl side, 3 side chain; on linkers, the order of the positions; unused ones are H or OH. Bridge positions count the residues as written; N and C are the ends. Square brackets hold non-standard residues; d marks the D form. Peptide text beside a SMILES is read from it. * marks the point of attachment. ξ: configuration not given here. TtdsdLys(DOTA)NH2 = NC(=O)[C@@H](CCCCNC(=O)CN1CCN(CC(=O)O)CCN(CC(=O)O)CCN(CC(=O)O)CC1)NC(=O)CCC(=O)NCCCOCCOCCOCCCN*; X12 = O=C(O)CN1CCOCCN(CC(=O)O)CCN(CC(=O)*)CCOCCN(CC(=O)O)CC1; DOTA = O=C(O)CN1CCN(CC(=O)O)CCN(CC(=O)*)CCN(CC(=O)O)CC1; Biotin = O=C1N[C@H]2[C@H](CS[C@H]2CCCCC(=O)*)N1; Phe(4-Cl) = N[C@@H](Cc1ccc(Cl)cc1)C(=O)O; Arg(Me2s) = CN=C(NC)NCCC[C@H](N)C(=O)O; Phe(3-Me) = Cc1cccc(C[C@H](N)C(=O)O)c1; Arg(Me) = CNC(=N)NCCC[C@H](N)C(=O)O; X1 = O=C(CC1CCN([*:1])CC1)[*:2]; Cit = NC(=O)NCCC[C@H](N)C(=O)O; Lys(Me) = CNCCCC[C@H](N)C(=O)O; NMeL = CN[C@@H](CC(C)C)C(=O)O; Tle = CC(C)(C)[C@H](N)C(=O)O; Nle = CCCC[C@H](N)C(=O)O; Hexanoyl = CCCCCC(=O)*; ξD = NC(CC(=O)O)C(=O)O; Aib = CC(C)(N)C(=O)O; Guanidino = N=C(N)N*

Assays:
[1] = target: T1, PSMA-expressing C4-2 cells (Homo sapiens, UniProt Q04609); assay: FACS binding assay (competition with 50 nM PSM-0183)
T1 construct: PSMA-expressing C4-2 cells (ATCC, Cat. No. CRL-3314) were cultured in RPMI-1640; host or cells: C4-2 cells
Summary of the method: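 C4-2 cells were incubated 1 h at 4 °C with 50 nM AF488-labelled peptide PSM-0183 plus increasing test compound concentrations, then washed twice in ice-cold buffer. Median fluorescence in the AF488 channel was read by flow cytometry. IC50/pIC50 was derived by 4PL fitting of MFI versus concentration.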

[2] = target: T2, Fc-fusion protein of human PSMA (hPSMA-Fc) (Homo sapiens, UniProt Q04609); assay: Surface plasmon resonance assay (Biacore T200, single cycle kinetic); type: binding
T2 construct: purchased Acro Biosystems PSA-H5264
Summary of the method: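 hPSMA-Fc was captured (~1000 RU) on an Fc-binding-peptide CM5 chip, and compounds were run in single cycle kinetic mode at 25° C in HBST with 0.1% DMSO. Double-blank-corrected sensorgrams were fitted to a 1:1 Langmuir model to give KD, reported as pKD.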

[3] = pIC50 category of FACS binding, C4-2 cells, read-out: pIC50 [C4-2] CAT (converted)
[4] = pKD category for PSMA SPR activity assay, hPSMA-Fc, 25° C., read-out: pKD CAT (converted)

T1 sequence (Q04609 whole entry): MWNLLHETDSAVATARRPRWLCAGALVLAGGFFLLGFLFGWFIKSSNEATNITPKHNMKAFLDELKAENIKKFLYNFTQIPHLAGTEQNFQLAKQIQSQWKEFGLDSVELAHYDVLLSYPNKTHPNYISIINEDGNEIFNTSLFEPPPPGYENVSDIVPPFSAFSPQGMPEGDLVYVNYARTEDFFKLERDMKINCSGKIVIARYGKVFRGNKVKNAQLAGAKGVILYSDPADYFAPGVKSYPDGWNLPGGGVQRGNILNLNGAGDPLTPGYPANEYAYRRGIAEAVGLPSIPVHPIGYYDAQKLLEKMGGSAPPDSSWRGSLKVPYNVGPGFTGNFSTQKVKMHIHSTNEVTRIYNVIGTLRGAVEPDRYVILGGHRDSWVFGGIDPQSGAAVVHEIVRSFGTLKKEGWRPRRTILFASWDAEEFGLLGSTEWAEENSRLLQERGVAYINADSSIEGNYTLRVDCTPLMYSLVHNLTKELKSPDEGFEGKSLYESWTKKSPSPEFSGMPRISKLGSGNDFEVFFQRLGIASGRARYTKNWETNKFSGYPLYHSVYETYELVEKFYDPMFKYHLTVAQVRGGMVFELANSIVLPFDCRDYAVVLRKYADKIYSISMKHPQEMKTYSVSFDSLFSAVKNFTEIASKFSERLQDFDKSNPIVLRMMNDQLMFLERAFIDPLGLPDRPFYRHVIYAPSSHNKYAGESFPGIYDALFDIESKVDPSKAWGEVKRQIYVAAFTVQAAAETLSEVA
T2 sequence (Q04609 44-750 limits assumed): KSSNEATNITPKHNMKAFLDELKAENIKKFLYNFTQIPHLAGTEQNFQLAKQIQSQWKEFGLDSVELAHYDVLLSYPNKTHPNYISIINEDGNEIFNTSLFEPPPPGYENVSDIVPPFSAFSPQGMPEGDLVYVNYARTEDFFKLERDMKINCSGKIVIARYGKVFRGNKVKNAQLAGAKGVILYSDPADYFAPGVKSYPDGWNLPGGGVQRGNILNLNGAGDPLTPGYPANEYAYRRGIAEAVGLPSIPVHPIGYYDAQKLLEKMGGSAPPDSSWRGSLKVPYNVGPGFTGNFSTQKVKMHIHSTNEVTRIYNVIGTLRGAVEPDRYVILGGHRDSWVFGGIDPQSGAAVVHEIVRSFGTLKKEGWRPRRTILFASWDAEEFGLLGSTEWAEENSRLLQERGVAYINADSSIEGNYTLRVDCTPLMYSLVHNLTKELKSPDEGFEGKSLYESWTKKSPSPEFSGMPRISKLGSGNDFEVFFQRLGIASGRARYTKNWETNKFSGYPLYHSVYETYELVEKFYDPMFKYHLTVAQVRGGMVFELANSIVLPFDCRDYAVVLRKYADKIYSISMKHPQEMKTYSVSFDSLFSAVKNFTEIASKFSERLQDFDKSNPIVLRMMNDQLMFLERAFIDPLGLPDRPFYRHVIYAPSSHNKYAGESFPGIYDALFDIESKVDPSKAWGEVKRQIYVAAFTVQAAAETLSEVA

Row | Compound | IC50 [1, 3] | Kd [2, 4] | IC50 [1] | Kd [2]
1 | C[C@@H](O)[C@H](NC(=O)[C@@H](NC(=O)[C@@H]1CSSC[C@H](NC(=O)[C@H](Cc2ccc(Cl)cc2)NC(=O)C(C)(C)NC(=O)CC2CCN(C(=O)CN3CCN(CC(=O)O)CCN(CC(=O)O)CCN(CC(=O)O)CC3)CC2)C(=O)N[C@@H](CCCCN)C(=O)N[C@@H](CCC(=O)NC(=N)N)C(=O)NC(C)(C)C(=O)N[C@@H](CC(N)=O)C(=O)N1)C(C)(C)C)C(N)=O [PSM-0489, DOTA-Cmp-Aib-Pcf-[Cys-Lys-Gin (Gu)-Aib-Asn-Cys]-Tle-Thr-NH2] ({DOTA}-[X1][Aib][Phe(4-Cl)]CKE(Guanidino)[Aib]NC[Tle]T-NH2; disulfide 4-9) | < 0.2 µM | < 0.0126 µM | – | –
2 | C[C@@H](O)[C@H](NC(=O)[C@@H](NC(=O)[C@@H]1CSSC[C@H](NC(=O)[C@H](Cc2ccc(Cl)cc2)NC(=O)C(C)(C)NC(=O)[C@@H](NC(=O)CC2CCN(C(=O)CN3CCN(CC(=O)O)CCN(CC(=O)O)CCN(CC(=O)O)CC3)CC2)[C@@H](C)O)C(=O)N[C@@H](CCCCNC(=O)CCCC[C@@H]2SC[C@@H]3NC(=O)N[C@@H]32)C(=O)N[C@@H](CCCNC(=N)N)C(=O)NC(C)(C)C(=O)N[C@@H](CC(N)=O)C(=O)N1)C(C)(C)C)C(N)=O [PSM-0490, DOTA-Cmp-Thr-Aib-Pcf-[Cys-Lys (Bio)-Arg-Aib-Asn-Cys]-Tle-Thr-NH2] ({DOTA}-[X1]T[Aib][Phe(4-Cl)]CK(Biotin)R[Aib]NC[Tle]T-NH2; disulfide 5-10) | 0.2 to 1.26 µM | < 0.0126 µM | – | –
3 | CCCC[C@H](NC(=O)[C@@H]1CSSC[C@H](NC(=O)[C@H](Cc2ccccc2)NC(=O)[C@H](C)NC(=O)[C@H](C)NC(C)=O)C(=O)N[C@@H](CCCCN)C(=O)N[C@@H](CCCNC(=N)N)C(=O)N[C@@H](C)C(=O)N[C@@H](CC(N)=O)C(=O)N1)C(=O)N[C@H](C(=O)N[C@@H](CC(=O)O)C(N)=O)[C@@H](C)O [PSM-0491, Ac-Ala-Ala-Phe-[Cys-Lys-Arg-Ala-Asn-Cys]-Nle-Thr-Asp-NH2] (Ac-AAFCKRANC[Nle]TD-NH2; disulfide 4-9) | 0.2 to 1.26 µM | 0.126 to 0.501 µM | – | –
4 | CC(=O)N[C@H](C(=O)NC(C)(C)C(=O)N[C@@H](Cc1ccc(Cl)cc1)C(=O)N[C@H]1CSSC[C@@H](C(=O)N[C@H](C(=O)N[C@H](C(=O)O)[C@@H](C)O)C(C)(C)C)NC(=O)[C@H](CC(N)=O)NC(=O)C(C)(C)NC(=O)[C@H](CCCNC(=N)N)NC(=O)[C@H](CCCCN)NC1=O)[C@@H](C)O [PSM-0493, Ac-Thr-Aib-Pcf-[Cys-Lys-Arg-Aib-Asn-Cys]-Tle-Thr-OH] (Ac-T[Aib][Phe(4-Cl)]CKR[Aib]NC[Tle]T-OH; disulfide 4-9) | < 0.2 µM | < 0.0126 µM | – | –
5 | CC(=O)NC(C)(C)C(=O)N[C@@H](Cc1ccc(Cl)cc1)C(=O)N[C@H]1CSSC[C@@H](C(=O)N[C@H](C(=O)N[C@H](C(=O)N2CCC(CC(=O)N[C@H](CCCCNC(=O)CN3CCN(CC(=O)O)CCN(CC(=O)O)CCN(CC(=O)O)CC3)C(N)=O)CC2)[C@@H](C)O)C(C)(C)C)NC(=O)[C@H](CC(N)=O)NC(=O)C(C)(C)NC(=O)[C@H](CCC(=O)NC(=N)N)NC(=O)[C@H](CCCCN)NC1=O [PSM-0494, Ac-Aib-Pcf-[Cys-Lys-Gln(Gu)-Aib-Asn-Cys]-Tle-Thr-Cmp-lys(DOTA)-NH2] (Ac-[Aib][Phe(4-Cl)]CKE(Guanidino)[Aib]NC[Tle]T[X1][dK](DOTA)-NH2; disulfide 3-8) | – | – | < 0.2 µM | 0.0126 to 0.126 µM
6 | CNCCCC[C@@H]1NC(=O)[C@@H](NC(=O)[C@H](Cc2ccc(Cl)cc2)NC(=O)C(C)(C)NC(=O)[C@@H](NC(=O)CC2CCN(C(=O)CN3CCOCCN(CC(=O)O)CCN(CC(=O)O)CCOCCN(CC(=O)O)CC3)CC2)[C@@H](C)O)CSSC[C@@H](C(=O)N[C@H](C(=O)N[C@H](C(N)=O)[C@@H](C)O)C(C)(C)C)NC(=O)[C@H](CC(N)=O)NC(=O)C(C)(C)NC(=O)[C@H](CCCNC(=N)NC)NC1=O [PSM-0495, Crown-Cmp-Thr-Aib-Pcf-[Cys-Lys(Me)-Arg(Me)-Aib-Asn-Cys]-Tle-Thr-NH2] (X12-[X1]T[Aib][Phe(4-Cl)]C[Lys(Me)][Arg(Me)][Aib]NC[Tle]T-NH2; disulfide 5-10) | < 0.2 µM | < 0.0126 µM | – | –
7 | CC(=O)N[C@H](C(=O)NC(C)(C)C(=O)N[C@@H](Cc1ccc(Cl)cc1)C(=O)N[C@H]1CSSC[C@@H](C(=O)N[C@H](C(=O)N[C@H](C(N)=O)[C@@H](C)O)C(C)(C)C)NC(=O)[C@H](CCC(=O)O)NC(=O)C(C)(C)NC(=O)[C@H](CCCNC(N)=O)NC(=O)[C@H](CCCCN)NC1=O)[C@@H](C)O [PSM-0496, Ac-Thr-Aib-Pcf-[Cys-Lys-Cit-Aib-Glu-Cys]-Tle-Thr-NH2] (Ac-T[Aib][Phe(4-Cl)]CK[Cit][Aib]EC[Tle]T-NH2; disulfide 4-9) | < 0.2 µM | 0.0126 to 0.126 µM | – | –
8 | CC(C)C[C@@H](C(=O)N[C@H](C(N)=O)[C@@H](C)O)N(C)C(=O)[C@@H]1CSSC[C@H](NC(=O)[C@H](Cc2ccc(Cl)cc2)NC(=O)C(C)(C)NC(=O)[C@@H](NC(=O)CC2CCN(C(=O)CN3CCN(CC(=O)O)CCN(CC(=O)O)CCN(CC(=O)O)CC3)CC2)[C@@H](C)O)C(=O)N[C@@H](CCCCN)C(=O)N[C@@H](CCCNC(=N)N)C(=O)NC(C)(C)C(=O)N[C@@H](CC(N)=O)C(=O)N1 [PSM-0497, DOTA-Cmp-Thr-Aib-Pcf-[Cys-Lys-Arg-Aib-Asn-Cys]-Nml-Thr-NH2] ({DOTA}-[X1]T[Aib][Phe(4-Cl)]CKR[Aib]NC[NMeL]T-NH2; disulfide 5-10) | 0.2 to 1.26 µM | 0.126 to 0.501 µM | – | –
9 | CSCC[C@H](N)C(=O)N[C@H](C(=O)N[C@@H](C)C(=O)N[C@@H](Cc1ccccc1)C(=O)N[C@H]1CSSC[C@@H](C(=O)N[C@@H](CC(C)C)C(=O)N[C@H](C(=O)NC(CC(=O)O)C(=O)NCC(=O)N[C@@H](CO)C(N)=O)[C@@H](C)O)NC(=O)[C@H](CC(N)=O)NC(=O)[C@H](C)NC(=O)[C@H](CCCNC(=N)N)NC(=O)[C@H](CCCCN)NC1=O)[C@@H](C)O (stereo partly drawn) [PSM-0498, H-Met-Thr-Ala-Phe-[Cys-Lys-Arg-Ala-Asn-Cys]-Lou-Thr-Asp-Gly-Ser-NH2] (H-MTAFCKRANCLT[ξD]GS-NH2; disulfide 5-10) | < 0.2 µM | < 0.0126 µM | – | –
10 | C/N=C(/NC)NCCC[C@@H]1NC(=O)[C@H](CCCCNC)NC(=O)[C@@H](NC(=O)[C@H](Cc2ccc(Cl)cc2)NC(=O)C(C)(C)NC(=O)[C@@H](NC(=O)CC2CCN(C(=O)CN3CCN(CC(=O)O)CCN(CC(=O)O)CCN(CC(=O)O)CC3)CC2)[C@@H](C)O)CSSC[C@@H](C(=O)N[C@H](C(=O)N[C@H](C(N)=O)[C@@H](C)O)C(C)(C)C)NC(=O)[C@H](CC(N)=O)NC(=O)C(C)(C)NC1=O [PSM-0499, DOTA-Cmp-Thr-Aib-Pcf-[Cys-Lys(Me)-Egd-Aib-Asn-Cys]-Tle-Thr-NH2] ({DOTA}-[X1]T[Aib][Phe(4-Cl)]C[Lys(Me)][Arg(Me2s)][Aib]NC[Tle]T-NH2; disulfide 5-10) | < 0.2 µM | < 0.0126 µM | – | –
11 | CCCC[C@H](NC(=O)[C@@H]1CSSC[C@H](NC(=O)[C@H](Cc2ccccc2)NC(=O)C(C)(C)NC(=O)[C@@H](NC(C)=O)[C@@H](C)O)C(=O)N[C@@H](CCCCN)C(=O)N[C@@H](CCCNC(=N)N)C(=O)N[C@@H](C)C(=O)N[C@@H](CC(N)=O)C(=O)N1)C(=O)N[C@H](C(=O)N[C@@H](CC(=O)O)C(N)=O)[C@@H](C)O [PSM-0501, Ac-Thr-Aib-Phe-[Cys-Lys-Arg-Ala-Asn-Cys]-Nle-Thr-Asp-NH2] (Ac-T[Aib]FCKRANC[Nle]TD-NH2; disulfide 4-9) | < 0.2 µM | < 0.0126 µM | – | –
12 | CCCCCC(=O)N[C@H](C(=O)NC(C)(C)C(=O)N[C@@H](Cc1ccccc1)C(=O)N[C@H]1CSSC[C@@H](C(=O)N[C@H](C(=O)N[C@H](C(=O)N[C@@H](CC(=O)O)C(=O)NCCCOCCOCCOCCCNC(=O)CCC(=O)N[C@H](CCCCNC(=O)CN2CCN(CC(=O)O)CCN(CC(=O)O)CCN(CC(=O)O)CC2)C(N)=O)[C@@H](C)O)C(C)(C)C)NC(=O)[C@H](CC(N)=O)NC(=O)[C@H](C)NC(=O)[C@H](CCCNC(=N)N)NC(=O)[C@H](CCCCN)NC1=O)[C@@H](C)O [PSM-0502, Hex-Thr-Aib-Phe-[Cys-Lys-Arg-Ala-Asn-Cys]-Tle-Thr-Asp-Ttds-lys(DOTA)-NH2] (Hexanoyl-T[Aib]FCKRANC[Tle]TD-{TtdsdLys(DOTA)NH2}; disulfide 4-9) | < 0.2 µM | < 0.0126 µM | – | –
13 | CNCCCC[C@@H]1NC(=O)[C@@H](NC(=O)[C@H](Cc2cccc(C)c2)NC(=O)C(C)(C)NC(=O)[C@@H](NC(=O)CC2CCN(C(=O)CN3CCN(CC(=O)O)CCN(CC(=O)O)CCN(CC(=O)O)CC3)CC2)[C@@H](C)O)CSSC[C@@H](C(=O)N[C@H](C(N)=O)C(C)(C)C)NC(=O)[C@H](CC(N)=O)NC(=O)C(C)(C)NC(=O)[C@H](CCCNC(=N)NC)NC1=O [PSM-0503, DOTA-Cmp-Thr-Aib-Mmf-[Cys-Lys(Me)-Arg(Me)-Aib-Asn-Cys]-Tle-NH2] ({DOTA}-[X1]T[Aib][Phe(3-Me)]C[Lys(Me)][Arg(Me)][Aib]NC[Tle]-NH2; disulfide 5-10) | < 0.2 µM | 0.0126 to 0.126 µM | – | –
